Tested on: adjuvant-induced arthritis
Experiment: Established adjuvant-induced arthritis in rats (paw volume, uninjected left hind paw)
Assay type: in vivo, Male Charles River Lewis rats
Settings: Rattus norvegicus, po, read-out: Adjuvant Arthritis ED50 (effective dose for 50% decrease from control paw volume)
Text: To detect and compare the antiinflammatory activities of compounds in this series and standard drugs, the adjuvant arthritis test was used. A good correlation exists with results in this assay and human efficacy. (Federation Proceedings, 32, 2, 1973 "Models Used for the Study and Therapy of Rheumatoid Arthritis"--Symposium of the American Society for Pharmacology and Experimental Therapeutics).
ESTABLISHED ADJUVANT-INDUCED ARTHRITIS IN RATS
Male Charles River Lewis rats (130-150 grams) are injected subcutaneously in the plantar area of the right hind paw with 0.1 ml of adjuvant (Difco heat-killed, lyophilized Mycobacterium butyricum suspended in mineral oil 5 mg/ml). 20 Non-arthritic controls are injected with mineral oil. The animals are held for 2 weeks to allow development of arthritis. Paw volumes (uninjected, left hind paw) are measured and the adjuvant injected rats are culled and distributed to treatment groups of 10 of equal disease severity. Non-arthritic controls are distributed to 2 groups of 10. The rats are given oral doses of compound or PVA-Acacia (Polyvinyl Alcohol 1%, Gum acacia, U.S.P. 5%, Methylparaben 0.5%) or 0.25% methocel (10 ml/kg) by gavage on that day and on the 6 following days. One day after the last dose, the paw volumes (uninjected, left hind paw) are measured using a Ugo Basile Volume Differential Meter Model 7101. Inhibiting effects are calculated by the following formula: [formula]
Dose-response regression lines of the percent decrease are plotted on semi-log paper by visual fit and the effective dose for 50% decrease from control paw volume (ED50) is determined by inspection.
Compounds from this series were also compared to indomethacin, phenylbutazone, ibuprofen, and aspirin.

SMILES	ED50 [mg/kg]
COc1ccc2c(c1)c(CC(=O)O)c(C)n2C(=O)c1ccc(Cl)cc1 [Indomethacin, reference compound]	0.3
CC(=O)Oc1ccccc1C(=O)O [Aspirin, reference compound]	305

Same assay, conditions: rat, oral gavage daily, 7 days; paw volume one day after last dose; read-out: Adjuvant Arthritis ED50 (effective dose for 50% decrease from control paw volume)

SMILES	ED50 [mg/kg]
CS(=O)(=O)c1ccc(-c2[nH]c(Br)cc2-c2ccc(F)cc2)cc1 [Example 2, 2-Bromo-4-(4-fluorophenyl)-5-(4-methylsulfonylphenyl)-1H-pyrrole]	1.1
CS(=O)(=O)c1ccc(-c2[nH]c(Br)c(Br)c2-c2ccc(F)cc2)cc1 [Example 6]	0.88
Cn1c(Br)cc(-c2ccc(F)cc2)c1-c1ccc(S(C)(=O)=O)cc1 [Example 5, 1-Methyl-2-bromo-4-(4-fluorophenyl)-5-(4-methylsulfonylphenyl)pyrrole]	1.7
CS(=O)(=O)c1ccc(-c2[nH]c(Cl)cc2-c2ccc(F)cc2)cc1 [Example 3, 2-Chloro-4-(4-fluorophenyl)-5-(4-methylsulfonylphenyl)-1H-pyrrole]	0.5
CCCCC1C(=O)N(c2ccccc2)N(c2ccccc2)C1=O [Phenylbutazone, reference compound]	10
CC(C)Cc1ccc(C(C)C(=O)O)cc1 (stereo not drawn) [Ibuprofen, reference compound]	100
CS(=O)(=O)c1ccc(-c2[nH]c(Cl)c(Cl)c2-c2ccc(F)cc2)cc1 [Example 9]	1.5
CS(=O)(=O)c1ccc(-c2[nH]c(I)cc2-c2ccc(F)cc2)cc1 [Example 4, 2-Iodo-4-(4-fluorophenyl)-5-(4-methylsulfonylphenyl)-1H-pyrrole]	22

Same assay, conditions: rat, oral, daily dose 3 (mg/kg)

SMILES	% decrease from control paw volume at indicated daily dose [%]
CS(=O)(=O)c1ccc(-c2[nH]c(Cl)c(Br)c2-c2ccc(F)cc2)cc1 [Example 8, 2-Chloro-3-bromo-4-(4-fluorophenyl)-5-(4-methylsulfonylphenyl)-1H-pyrrole]	45

Same assay, conditions: rat, oral, daily dose 9 (mg/kg)

SMILES	% decrease from control paw volume at indicated daily dose [%]
CC(C)(C)OC(=O)n1c(Br)cc(-c2ccc(F)cc2)c1-c1ccc(S(C)(=O)=O)cc1 [Example 1, 1-tert-Butyloxycarbonyl-2-bromo-4-(4-fluorophenyl)-5-(4-methylsulfonylphenyl)pyrrole]	44
